Data from US5475012A, “N-cyanoamidine derivatives as anti-influenza agents” (priority 1994, dated 1995).
≈ marks a conversion by molar mass, not a printed value.

Experiments:
FluA/LA = assay: microbe, parasite or virus in culture; assay type: cell-based, influenza A virus; details: for IC50: Influenza A virus, in Gallus gallus, read-out: Median Inhibiting Concentration (IC50), FluA/LA; for activity against A/LA (in words): strain specificity
FluA/WSN = assay: Anti-influenza A activity, FluA/WSN (cytopathic effect, crystal violet stain, MDCK cells); assay type: cell-based, influenza A virus; details: for IC50: Influenza A virus, WSN, Table II, tested in MDCK cells, read-out: Median Inhibiting Concentration (IC50), FluA/WSN; for activity against A/WSN (in words): strain specificity
in vitro [1] = details: human, hep-2 cells
in vitro [2] = details: dog, mdck
FluB/Yama = assay: microbe, parasite or virus in culture; assay type: cell-based, influenza B virus; details: for IC50: Influenza B virus, read-out: Median Inhibiting Concentration (IC50), FluB/Yama; for activity against B/Yama (in words): strain specificity
in vitro [3] = details: human, mrc-5 cells
in vitro [4] = details: human, a549 cells
in vitro [5] = details: african green monkey, vero cells
FluA/Kaw = assay: microbe, parasite or virus in culture; assay type: cell-based, influenza A virus; details: for IC50: Influenza A virus, in Gallus gallus, read-out: Median Inhibiting Concentration (IC50), FluA/Kaw; for activity against A/Kaw (in words): strain specificity

Structure (SMILES) | IC50 (FluA/LA) [µg/mL] | IC50 (FluA/WSN) [µg/mL] | MCC (in vitro [1]) [µg/mL] | MCC (in vitro [2]) [µg/mL] | IC50 (FluB/Yama) [µg/mL] | MCC (in vitro [3]) [µg/mL] | MCC (in vitro [4]) [µg/mL] | MCC (in vitro [5]) [µg/mL] | IC50 (FluA/Kaw) [µg/mL] | activity against A/LA (in words) (FluA/LA) | activity against A/WSN (in words) (FluA/WSN) | activity against B/Yama (in words) (FluB/Yama) | activity against A/Kaw (in words) (FluA/Kaw)
NC(=O)c1ncn([C@@H]2O[C@H](CO)[C@@H](O)[C@H]2O)n1 [Ribavirin, reference compound] | > 16 | 1.6 to 5 (≈ 6.55 to 20.5 µM) | > 100 | > 100 | 1.6 to 5 (≈ 6.55 to 20.5 µM) | > 100 | > 100 | > 100 | > 16 | – | – | – | –
NC12CC3CC(CC(C3)C1)C2 [Amantadine, reference compound] | 0.16 (≈ 1.06 µM) | 16 (≈ 106 µM) | > 100 | > 100 | > 16 | > 100 | > 100 | > 100 | 0.5 to 1.6 (≈ 3.31 to 10.6 µM) | – | – | – | –
CC(Cc1ccccc1)(C(=NC#N)NCCc1ccccc1)c1ccccn1 (stereo not drawn) [Example 1, N'-Cyano-α-methyl-N-(2-phenylethyl)-α-(phenylmethyl)-2-pyridineethanimidamide] | > 16 | 0.16 to 0.5 (≈ 0.434 to 1.36 µM) | > 50 | > 50 | > 16 | > 50 | > 50 | > 50 | 0.5 to 1.6 (≈ 1.36 to 4.34 µM) | inactive | active | inactive | active
CC(Cc1ccccc1)(C(=NC#N)NCc1ccco1)c1ccccn1 (stereo not drawn) [Example 2, N'-Cyano-N-(2-furanylmethyl)-α-methyl-α-(phenylmethyl)-2-pyridineethanimidamide] | > 16 | 0.16 to 0.5 (≈ 0.465 to 1.45 µM) | > 50 | > 50 | > 16 | > 50 | > 50 | > 50 | 0.5 to 1.6 (≈ 1.45 to 4.65 µM) | inactive | active | inactive | active
CSC(=NC#N)NCCSCc1cccnc1Nc1ccccc1 [Example 3, N'-cyano-N-[2-[[[2-(phenylamino)-3-pyridinyl]methyl]thio]ethyl]carbamimidothioic acid methyl ester] | – | – | > 100 | > 100 | – | > 100 | > 100 | > 100 | – | – | – | – | –
